What was measured:
[1] = tested on: polyglutamine luciferase reporter; assay: Screening: polyglutamine luciferase reporter assay in NUGC3 cells (luminescence % of DMSO); assay type: cell-based, human; conditions: NUGC3 cells, luminescence relative to DMSO, concentration not given
Description: (§1) Human gastric cancer cell line NUGC3 was cultured in a DMEM medium (high glucose with L-glutamine and phenol red, produced by FUJIFILM Wako Pure Chemical Corporation) containing 10% fetal bovine serum (produced by Thermo Fisher Scientific Inc.) and penicillin-streptomycin (produced by FUJIFILM Wako Pure Chemical Corporation) (this medium is simply referred to below as “DMEM+10% FBS+1×P/S”). Then, the NUGC3 cells were seeded in a 60-mm culture dish (produced by BioLite) so that the cells were 80% confluent after 24 hours. Subsequently, 5 μg of a reporter plasmid and 15 μL of a lipofection reagent (transIT-LT1, produced by Mirus Bio LLC) were mixed in 500 μL of Opti-MEM medium (produced by Thermo Fisher Scientific, Inc.) to form a complex, which was added to the medium in which the NUGC3 cells were cultured in the 60-mm culture dish. For use as the reporter plasmid, 5 μg of a polyglutamine luciferase reporter was introduced (in the polyglutamine luciferase reporter, a Renilla luciferase expressed in the IRES was located as an internal standard downstream of the sequence of a firefly luciferase sequence to which polyglutamine was added). Alternatively, a YAP/TAZ activity reporter was used by simultaneously introducing 3 μg of 8×GTIIC plasmid and 2 μg of a Renilla luciferase reporter as an internal standard. After another 24 hours, the cells were exfoliated with a 0.05 w/v % trypsin-0.53 mmol/l EDTA-4Na solution (produced by FUJIFILM Wako Pure Chemical Corporation), and then seeded in a 96-well plate (produced by BioLite) so that the cells were 80% confluent after 24 hours. Twenty-four hours after seeding in the 96-well plate, the medium in each well was replaced with 100 μL of a medium (DMEM+10% FBS+an antibiotic) containing 10 μM or 5 μM of a compound for evaluation. After another 24 hours, the medium containing the compound was removed, and the 96-well plate was transferred on ice. Each well was washed with 100 μL of phosphate buffer (PBS, produced by FUJIFILM Wako Pure Chemical Corporation). Thereafter, 20 μL of Passive Lysis Buffer (1×) contained in a Dual-Luciferase Reporter Assay System (produced by Promega Corporation) was added. The plate was then gently shaken for 15 minutes at room temperature to lyse the cells. After confirming that the cells were lysed, 10 μL of the lysate was transferred from each well to each corresponding well of a white 96-well plate (produced by Greiner Bio-one). To each well of the white 96-well plate was added 100 μL of a mixture of a Luciferase Assay Buffer II and Luciferase Assay Substrate contained in the Dual-Luciferase Reporter Assay System (produced by Promega Corporation), whereby the luminescence of the firefly luciferase was induced, and the luminescence intensity was detected with a microluminometer (produced by Berthold Japan K.K.). Subsequently, 100 μL of a mixture of Stop & Glo Buffer and Stop & Glo Substrate contained in the Dual-Luciferase Reporter Assay System (produced by Promega Corporation) was added, whereby the luminescence of firefly luciferase was quenched while the luminescence of Renilla luciferase was induced, and the luminescence intensity was detected with a microluminometer (produced by Berthold Japan K.K.) in a manner similar to the above. The ratio of the luminescence intensity of the firefly luciferase and the luminescence intensity of the Renilla luciferase was calculated, and the luminescence intensity (%) of the wells containing each compound was calculated with the luminescence intensity of the well containing DMSO (dimethyl sulfoxide, used as a solvent for the compound liquids) taken as 100%. […] Unless otherwise specified, the measured values in the table represent the results obtained by evaluation with the addition of 10 μM of each compound for evaluation.

YAP/TAZ = assay: Screening: YAP/TAZ activity reporter (8xGTIIC plasmid) assay in NUGC3 cells (luminescence % of DMSO); assay type: cell-based, human; conditions: NUGC3 cells, luminescence relative to DMSO, concentration not given
Description: as §1

[2] = polyglutamine luciferase reporter
[3] = YAP/TAZ activity reporter (8×GTIIC)

SMILES	Polyglutamine [1, 2]	8×GTIIC (YAP/TAZ; [3])	Polyglutamine [1]	8×GTIIC (YAP/TAZ)
Cc1ccc(C)c(S(=O)(=O)CC2CCC(C3CC3)CC2)c1 (single isomer, unassigned) [SA005]	76.08%	90.78%		
Cc1ccc(C)c(S(=O)(=O)C2CCC(CS(=O)(=O)c3ccccc3)CC2)c1 (single isomer, unassigned) [SA014]	72.95%	93.69%		
Cc1ccc(C)c(S(=O)(=O)C2CCC(CS(=O)(=O)c3ccccc3)CC2)c1 (single isomer, unassigned) [SA015]	60.36%	69.21%		
CCc1ccc(OC)cc1C1CC(c2ccc(C)cc2)=NC1S(=O)(=O)c1ccc(C)cc1 (stereo not shown) [PVZF0043]			35.33%	36.69%
CCc1cccc(C2CC(c3ccccc3)=NC2S(=O)(=O)c2ccccc2)c1CC (stereo not shown) [PVZF0046]			47.04%	54.68%
CCc1cccc(C2CC(c3cccc(C)c3)=NC2S(=O)(=O)c2ccccc2)c1CC (stereo not shown) [PVZF0049]			67.85%	91.32%
CCc1cccc(C2CC(c3ccccc3)=NC2S(=O)(=O)c2ccccc2C)c1CC (stereo not shown) [PVZF0050]			58.65%	106.2%
CCc1cccc(C2CC(c3ccc(C)cc3)=NC2S(=O)(=O)c2ccccc2C)c1CC (stereo not shown) [PVZF0051]			40.74%	36.59%
CCc1ccc(C2=NC(S(=O)(=O)c3ccccc3)C(c3cccc(CC)c3CC)C2)cc1CC (stereo not shown) [PVZF0052]			71.62%	54.38%
CCc1cc(OC)cc(C2=NC(S(=O)(=O)c3ccccc3)C(c3cccc(CC)c3CC)C2)c1 (stereo not shown) [PVZF0053]			68.68%	58.96%
CCc1ccc(C2=NC(S(=O)(=O)c3ccccc3)C(c3cccc(CC)c3CC)C2)c(CC)c1 (stereo not shown) [PVZF0054]			56.4%	49.48%
CCc1cc(CC)cc(C2=NC(S(=O)(=O)c3ccc(C)cc3)C(c3cccc(CC)c3CC)C2)c1 (stereo not shown) [PVZF0055]			46.42%	45.63%
CCc1cccc(C2CC(c3ccc(C)cc3)=NC2S(=O)(=O)c2ccccc2)c1CC (stereo not shown) [PVZF0056]			48.33%	53.76%
CCc1cccc(C2CC(c3ccc(C)cc3)=NC2S(=O)(=O)c2ccc(C)cc2)c1CC (stereo not shown) [PVZF0057]			50.71%	61.81%
CCc1cccc(C2CC(c3cccc(C)c3)=NC2S(=O)(=O)c2ccccc2C)c1CC (stereo not shown) [PVZF0058]			54.21%	66.66%
CCc1cccc(C2CC(c3ccc(C)cc3)=NC2S(=O)(=O)c2ccccc2C)c1CC (stereo not shown) [PVZF0059]			43.94%	38.46%
CCc1ccccc1C1CC(c2ccc(C)cc2)=NC1S(C)(=O)=O (stereo not shown) [PVZF0060]			38.44%	44.13%
CCc1cccc(C2CC(c3ccc(C)cc3)=NC2S(C)(=O)=O)c1 (stereo not shown) [PVZF0061]			69.94%	121.9%
Cc1ccc(C2=NC(S(=O)(=O)c3ccccc3C)C(c3cccc(C)c3)C2)cc1 (stereo not shown) [PVZF0062]			54.91%	73.79%
CCc1ccccc1C1CC(c2ccc(C)cc2)=NC1S(=O)(=O)c1ccccc1 (stereo not shown) [PVZF0063]			43.6%	56.3%
Cc1ccc(C2=NC(S(=O)(=O)c3ccccc3C)C(c3ccc(C)cc3)C2)cc1 (stereo not shown) [PVZF0064]			58.28%	93.3%

SMILES	Polyglutamine [1, 2]	8×GTIIC (YAP/TAZ; [3])	Polyglutamine [1]	8×GTIIC (YAP/TAZ)
CCc1ccccc1C1CC(c2ccc(C)cc2)=NC1S(=O)(=O)c1ccccc1C (stereo not shown) [PVZF0065]			48.96%	67.6%
CCc1ccc(C2CC(c3ccc(C)cc3)=NC2S(=O)(=O)c2ccccc2)cc1CC (stereo not shown) [PVZF0066]			56.14%	65.56%
CCc1ccc(CC)c(C2CC(c3ccc(C)cc3)=NC2S(=O)(=O)c2ccccc2C)c1 (stereo not shown) [PVZF0067]			32.14%	34.58%
CCc1cccc(C2CC(c3ccccc3)=NC2S(=O)(=O)c2ccc(C)cc2)c1CC (stereo not shown) [PVZF0068]			39.33%	51.65%
CCc1cccc(C2CC(c3ccc(C)cc3)=NC2S(=O)(=O)c2ccc(C)cc2)c1CC (stereo not shown) [PVZF0069]			46.34%	49.99%
Cc1ccc(C2=NC(S(=O)(=O)c3ccc(C)cc3)C(c3ccccc3)C2)cc1 (stereo not shown) [PVZF0072]			60.73%	76.88%
Cc1ccc(C2=NC(S(=O)(=O)c3ccccc3)C(c3ccc(C)cc3)C2)cc1 (stereo not shown) [PVZF0073]			60.62%	86.43%
Cc1ccc(C2=NC(S(=O)(=O)c3ccccc3)C(c3ccccc3C)C2)cc1 (stereo not shown) [PVZF0074]			79.16%	96.63%
CCc1cccc(C2CC(c3ccc(C)cc3)=NC2S(C)(=O)=O)c1CC (stereo not shown) [PVZF0079]			53.25%	79.74%
CCc1ccc(C2=NC(S(=O)(=O)c3ccc(C)cc3)C(c3cccc(CC)c3CC)C2)cc1CC (stereo not shown) [PVZF0081]			57.42%	56.18%
Cc1ccc(C2=NC(S(C)(=O)=O)C(c3ccc(C)cc3)C2)cc1 (stereo not shown) [PVZF0082]			87.78%	172.9%
CCc1ccc(C2CC(c3ccc(C)cc3)=NC2S(C)(=O)=O)cc1 (stereo not shown) [PVZF0083]			57.89%	104.5%
Cc1ccc(C2=NC(S(C)(=O)=O)C(c3ccc(C(C)C)cc3)C2)cc1 (stereo not shown) [PVZF0084]			71.08%	146.9%
Cc1ccc(C2=NC(S(=O)(=O)c3ccccc3)C(c3ccc(C)cc3)C2)cc1 (stereo not shown) [PVZF0086]			58.32%	57.06%
Cc1ccc(C2=NC(S(C)(=O)=O)C(c3ccc(C)cc3)C2)cc1 (stereo not shown) [PVZF0087]			81.35%	187.1%
CCc1ccc(C2CC(c3ccc(C)cc3)=NC2S(=O)(=O)c2ccccc2)cc1 (stereo not shown) [PVZF0089]			67.1%	70.13%
CCc1ccccc1C1CC(c2ccc(C)cc2)=NC1S(=O)(=O)c1ccc(C)cc1 (stereo not shown) [PVZF0091]			34.27%	40.68%
CCc1ccc(C2CC(c3ccc(C)cc3)=NC2S(=O)(=O)c2ccc(C)cc2)cc1 (stereo not shown) [PVZF0092]			48.91%	54.44%
CC(=O)c1cccc(C2CC(c3ccc(C)cc3)=NC2S(=O)(=O)c2ccccc2)c1 (stereo not shown) [PVZF0093]			45.45%	59.77%
Cc1ccc(C2=NC(S(=O)(=O)c3ccc(C)cc3)C(c3ccccc3C)C2)cc1 (stereo not shown) [PVZF0094]			69.05%	97.79%
